Laboratory results: ChEMBL document CHEMBL1201862, “PubChem BioAssay data set” (2004)
Active and inactive are the calls of the source.

Experiments:
[1] = target: T1, Sentrin-specific protease 8 (Homo sapiens, UniProt Q96LD8); type: functional;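 note: kinetic enzyme assay of SENP8 cleaving a Nedd8 protein substrate, dose-response confirmation of screening hits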
T1 sequence (Q96LD8 whole entry): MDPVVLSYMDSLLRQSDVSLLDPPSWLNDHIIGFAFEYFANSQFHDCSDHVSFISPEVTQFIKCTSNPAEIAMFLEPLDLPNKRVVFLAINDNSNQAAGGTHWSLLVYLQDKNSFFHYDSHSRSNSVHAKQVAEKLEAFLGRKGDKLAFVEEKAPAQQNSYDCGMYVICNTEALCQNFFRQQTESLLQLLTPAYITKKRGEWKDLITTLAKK

Caspase-3 = target: T2, Caspase-3 (Homo sapiens, UniProt P42574); experiment: caspase-3 inhibitors as off-family protease, SAR follow-up, selectivity assay for SENP protease inhibitor project, biochemical, luminescence, set 2 (AID 588599); type: functional
T2 sequence (P42574 whole entry): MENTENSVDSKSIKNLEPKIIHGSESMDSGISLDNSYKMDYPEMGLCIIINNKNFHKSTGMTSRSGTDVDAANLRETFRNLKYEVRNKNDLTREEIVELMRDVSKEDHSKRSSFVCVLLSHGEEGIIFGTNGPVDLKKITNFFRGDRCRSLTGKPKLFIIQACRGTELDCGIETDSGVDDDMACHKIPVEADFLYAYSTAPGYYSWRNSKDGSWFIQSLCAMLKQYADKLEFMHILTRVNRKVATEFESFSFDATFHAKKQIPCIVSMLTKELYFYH

[2] = target: Glucose-6-phosphate 1-dehydrogenase (Homo sapiens, UniProt P11413); experiment: human G6PD enzyme inhibitors, dose response, selectivity assay for P. falciparum G6PD inhibitor project, biochemical, fluorescence (AID 504792); type: functional
[3] = target: T3, RNA-binding protein pos-1 (Caenorhabditis elegans, UniProt G5EF15); experiment: inhibitors of POS-1/mex-3 RNA binding, dose response, biochemical, fluorescence polarization (AID 1964);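 note: purified POS-1 fused to maltose binding protein made in E. coli; potency of compounds blocking POS-1 binding to fluorescent RNA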
T3 sequence (G5EF15 whole entry): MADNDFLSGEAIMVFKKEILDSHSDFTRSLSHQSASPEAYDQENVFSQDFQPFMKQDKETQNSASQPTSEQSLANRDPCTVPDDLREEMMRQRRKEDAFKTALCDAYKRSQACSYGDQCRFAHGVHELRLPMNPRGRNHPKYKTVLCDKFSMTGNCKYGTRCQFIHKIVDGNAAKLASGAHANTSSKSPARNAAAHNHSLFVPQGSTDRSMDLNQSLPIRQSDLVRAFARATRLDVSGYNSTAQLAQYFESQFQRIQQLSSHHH

[4] = target: Polyadenylate-binding protein 1 (Homo sapiens, UniProt P11940); experiment: PABP1 MLLE–PAM2 binding inhibitor potency, dose response, biochemical, fluorescence polarization, FITC-PAM2 peptide (AID 602259); type: functional; settings: read-out: IC50_Mean
Vero = Vero cell cytotoxicity, cytotoxicity control for flavivirus capping enzyme inhibitors (AID 588742); type: functional; settings: Chlorocebus sabaeus
Hexokinase-1 = target: T4, Hexokinase-1 (Homo sapiens, UniProt P19367); experiment: SAR analysis of small molecule inhibitors of hexokinase domain containing I (HKDC1) in the hexokinase 1 selectivity assay. [Related pubchem assays (depositor defined):AID493160, AID493190]; type: functional
T4 sequence (P19367 whole entry): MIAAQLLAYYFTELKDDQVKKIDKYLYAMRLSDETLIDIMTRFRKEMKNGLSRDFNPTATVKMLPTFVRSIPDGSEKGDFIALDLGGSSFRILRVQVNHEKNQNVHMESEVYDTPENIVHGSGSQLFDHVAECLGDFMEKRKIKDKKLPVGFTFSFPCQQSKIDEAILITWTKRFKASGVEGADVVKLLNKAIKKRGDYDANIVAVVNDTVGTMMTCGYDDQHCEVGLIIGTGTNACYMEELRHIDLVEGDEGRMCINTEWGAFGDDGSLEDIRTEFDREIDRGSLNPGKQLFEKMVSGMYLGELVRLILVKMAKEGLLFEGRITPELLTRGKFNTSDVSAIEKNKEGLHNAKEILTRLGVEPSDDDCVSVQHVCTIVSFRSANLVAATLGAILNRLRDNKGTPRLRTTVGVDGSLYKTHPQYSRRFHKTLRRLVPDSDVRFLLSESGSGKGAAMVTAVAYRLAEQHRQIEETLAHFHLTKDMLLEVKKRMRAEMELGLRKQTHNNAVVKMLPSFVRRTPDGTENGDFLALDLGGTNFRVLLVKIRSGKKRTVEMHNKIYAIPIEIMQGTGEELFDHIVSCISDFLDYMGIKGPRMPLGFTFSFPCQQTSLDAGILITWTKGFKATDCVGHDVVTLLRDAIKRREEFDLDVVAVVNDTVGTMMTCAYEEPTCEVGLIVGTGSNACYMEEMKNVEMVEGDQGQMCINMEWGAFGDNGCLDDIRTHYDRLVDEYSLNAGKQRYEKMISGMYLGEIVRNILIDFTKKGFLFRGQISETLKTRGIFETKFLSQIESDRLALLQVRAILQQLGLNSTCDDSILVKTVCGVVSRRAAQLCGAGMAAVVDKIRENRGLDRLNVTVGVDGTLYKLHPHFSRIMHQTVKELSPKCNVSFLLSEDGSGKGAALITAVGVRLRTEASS

[5] = cytotoxicity toward DRD oncogenic fibroblasts, dose response, cell-based, non-viral oncogenic, luminescence (AID 1934); type: functional; settings: Homo sapiens
[6] = target: T5, Heat shock factor protein 1 (Mus musculus, UniProt P38532); experiment: inhibition of MG132-induced HSE-luciferase signal, confirmation, cell-based, NIH3T3, luminescence, dose retest (AID 2382); type: functional;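 note: NIH3T3 fibroblasts with HSF1-driven luciferase reporter stressed by proteasome inhibitor MG132; luminescence from HSF1-driven luciferase expression after 8 hours of MG132 stress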
T5 sequence (P38532 whole entry): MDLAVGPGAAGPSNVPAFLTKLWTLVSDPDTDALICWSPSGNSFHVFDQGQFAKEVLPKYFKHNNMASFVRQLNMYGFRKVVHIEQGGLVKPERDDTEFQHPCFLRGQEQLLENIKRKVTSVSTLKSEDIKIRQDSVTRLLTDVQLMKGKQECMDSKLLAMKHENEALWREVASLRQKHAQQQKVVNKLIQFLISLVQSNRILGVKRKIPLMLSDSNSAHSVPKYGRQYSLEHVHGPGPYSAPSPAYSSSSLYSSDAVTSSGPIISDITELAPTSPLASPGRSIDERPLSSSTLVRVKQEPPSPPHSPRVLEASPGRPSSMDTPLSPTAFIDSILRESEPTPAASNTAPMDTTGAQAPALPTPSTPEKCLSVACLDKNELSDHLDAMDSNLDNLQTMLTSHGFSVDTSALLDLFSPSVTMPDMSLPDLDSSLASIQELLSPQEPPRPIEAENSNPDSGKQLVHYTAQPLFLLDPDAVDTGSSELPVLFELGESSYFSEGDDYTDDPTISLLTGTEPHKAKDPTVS

BJ = experiment: cytotoxicity toward BJ-TERT-LT-ST fibroblasts, dose response, cell-based, RAS-independent, luminescence (AID 1935); type: functional; settings: Homo sapiens;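 note: BJ fibroblasts immortalized with TERT plus LT and ST oncogenes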

Glucose-6-phosphate 1-dehydrogenase, sequence (P11413 whole entry, the tested form may be a part): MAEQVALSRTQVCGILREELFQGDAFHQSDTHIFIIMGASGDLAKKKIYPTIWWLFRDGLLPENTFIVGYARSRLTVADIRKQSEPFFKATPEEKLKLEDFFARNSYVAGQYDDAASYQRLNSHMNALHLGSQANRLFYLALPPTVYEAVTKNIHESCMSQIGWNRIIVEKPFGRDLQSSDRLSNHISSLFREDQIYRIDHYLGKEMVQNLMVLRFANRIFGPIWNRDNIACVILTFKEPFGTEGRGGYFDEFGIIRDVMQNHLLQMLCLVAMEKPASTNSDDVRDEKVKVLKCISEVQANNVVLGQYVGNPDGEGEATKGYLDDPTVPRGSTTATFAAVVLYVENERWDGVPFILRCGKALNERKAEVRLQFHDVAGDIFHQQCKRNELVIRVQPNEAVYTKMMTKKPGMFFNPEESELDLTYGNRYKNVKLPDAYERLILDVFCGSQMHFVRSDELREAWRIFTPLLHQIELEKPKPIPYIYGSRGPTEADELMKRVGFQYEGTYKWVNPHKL
Polyadenylate-binding protein 1, sequence (P11940 whole entry): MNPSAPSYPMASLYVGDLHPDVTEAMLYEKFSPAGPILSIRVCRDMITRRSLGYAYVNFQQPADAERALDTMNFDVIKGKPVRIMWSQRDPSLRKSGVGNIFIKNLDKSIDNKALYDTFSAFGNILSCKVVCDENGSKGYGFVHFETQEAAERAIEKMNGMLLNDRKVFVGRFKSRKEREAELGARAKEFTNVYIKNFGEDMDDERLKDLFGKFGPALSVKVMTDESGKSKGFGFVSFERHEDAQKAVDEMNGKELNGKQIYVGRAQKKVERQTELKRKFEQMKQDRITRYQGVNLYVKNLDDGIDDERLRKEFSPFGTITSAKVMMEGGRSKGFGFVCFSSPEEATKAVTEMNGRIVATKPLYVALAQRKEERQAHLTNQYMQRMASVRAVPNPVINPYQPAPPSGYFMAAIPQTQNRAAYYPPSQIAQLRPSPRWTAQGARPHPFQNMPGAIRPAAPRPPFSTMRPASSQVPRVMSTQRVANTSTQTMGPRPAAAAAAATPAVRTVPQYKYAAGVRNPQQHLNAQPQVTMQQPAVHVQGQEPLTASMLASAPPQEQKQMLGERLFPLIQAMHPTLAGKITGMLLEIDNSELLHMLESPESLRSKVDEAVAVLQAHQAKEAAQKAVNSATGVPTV

Structure (SMILES): COc1ccccc1N1C(=O)Cc2ccccc2C1=O
- IC50 [1]: 2.04 µM (active)

Structure (SMILES): Oc1ccccc1/C=C/c1noc(-c2ccccc2O)n1
- IC50 (Caspase-3): > 99 µM (inactive)

Structure (SMILES): O=C(O)CSc1cc(NS(=O)(=O)c2ccc(Cl)cc2)c2ccccc2c1O
- IC50 [2]: 29.9 µM (inactive)
- EC50 [3]: 36.8 µM (active)
- IC50 [4]: > 66 µM (inactive)
- CC50 (Vero): 33.2 µM (active)
- IC50 (Hexokinase-1): > 80 µM (inactive)

Structure (SMILES): Cc1nn(-c2ccccc2)c(Cl)c1CN(C(=O)CCl)c1ccc(Cl)cc1
- EC50 [5]: 1.92 µM (active)
- EC50 [6]: 1.57 µM (active)
- EC50 (BJ): 3.36 µM (inconclusive)
